Measured values as given in publication PMC12078333, “Pharmacokinetic evaluation and bioavailability of KPT-335 (Verdinexor) in cats” (Frontiers in Veterinary Science, 2025).
Read-outs that look alike come from different tables or passages of the source.

Test: Pharmacokinetics study of KPT-335 in cats (i.v. injection, p.o. capsules and tablets; UPLC-MS/MS, non-compartmental analysis)
Type: in vivo
Conditions: both sexes, plasma, cats; for AUC(0-t): read-out: AUClast; for AUC(0-inf): read-out: AUCINF_obs; for Cmax: read-out: Cmax
Experimental: In this study, a parallel trial design was employed, 42 adult domestic cats (21 males and 21 females), aged 1 to 2 years and weighing 2.5 ± 0.25 kg. Cats were grouped by random number, with half male and female in each group, and all cats were determined to be systemically healthy during an initial screening visit 1 week prior to the experiment. They were acclimatized to the laboratory environment for 7 days before the study commenced. During this period, they were kept in solitary cages with free access to water. Cats in the fasting group were deprived of food for 12 h prior to and 2 h following drug administration, while those in the feeding group were fed twice a day. Food and water sources were consistent throughout the trail. During and at the end of the experiment, we systematically assessed the adverse reactions by recording parameters such as body weight, behavior, and coat gloss in all test cats both before and after the trial. These observations were conducted to evaluate whether any adverse reactions occurred. All procedures were reviewed and approved by the Institutional Animal Care and Use Committee of China Agricultural University (11305-23-E-002).
The UPLC-MS/MS system utilized a UPLC 1290 (Agilent) paired with a Phenomenex Kinetex C18 column (50 mm × 2.1 mm, 2.6 μm) for separation at a flow rate of 0.3 mL/min. The chromatographic mobile phase comprised water (A) and acetonitrile (B), both containing 0.1% formic acid. The gradient elution program was as follows: from 0.5 to 2.5 min, 10 to 95% B; from 2.5 to 4.5 min, 95% B; from 4.5 to 4.6 min, 95 to 10% B; and from 4.6 to 6.0 min, 10% B. The injection volume was 2 μL.
For mass spectrometry, an Agilent 6,475-LC-TQ equipped with an electrospray ion source was used. Multiple Reaction Monitoring (MRM) was selected to quantify KPT-335 in the positive ion mode. The ion transitions monitored were m/z 443.1 → 334.0 and 443.1 → 110.1 for KPT-335, and m/z 444.1 → 334.0 for the internal standard (IS). The cone voltage and collision energy were optimized for KPT-335 and the IS individually, set at 160 V and 25 eV, respectively. The optimized parameters for the instrument included an ion source temperature of 350°C, solvent removal temperature of 320°C, capillary voltage of 3.0 kV, and a solvent gas flow rate of 300 L/h.
The method was developed based on prior research conducted in the laboratory ([16]) and validated in accordance with international guidelines ([17]). The calibration concentration range for KPT-335 spanned from 0.5 to 100 ng/mL, with a lower limit of quantification (LLOQ) set at 0.5 ng/mL. The squared correlation coefficient (R^2) values exceeded 0.999, indicating high linearity.
For sample preparation, 100 μL of plasma was mixed with 10 μL of internal standard (IS) and 900 μL of acetonitrile, followed by vortexing for 2 min. The mixture was then centrifuged at 13,400 × g at 4°C for 10 min. The supernatant was filtered through a 0.22 μm organic membrane, and the resulting sample was analyzed using UPLC-MS/MS.
Cats were divided into seven groups, with six cats in each group. In the intravenous (i.v.) group (Group 1), cats received an injection of KPT-335 at a dosage of 1 mg/kg body weight (BW), administered via a bolus through a venous infusion needle. For the oral (p.o.) administration, cats were given capsules in a fasting state at doses of 0.2 mg/kg BW (Group 2), 1 mg/kg BW (Group 3), and 2 mg/kg BW (Group 4). Additionally, tablets were administered at 1 mg/kg BW (fasting, Group 5), 1 mg/kg BW (Group 6), and 2 mg/kg BW (Group 7) in a feeding state, followed by 3 mL of water delivered with a syringe.
For the p.o. administration, blood samples of 1.5 mL were collected via the brachial cephalic vein prior to administration and at 0.167, 0.333, 0.5, 0.75, 1, 1.5, 2, 4, 6, 8, 12, 24, 32, and 48 h post-administration. […]

[1] = cat, iv, 1 mg/kg, i.v. 1 mg/kg BW, mean, read-out: Plasma concentration Mean
[2] = cat, iv, 1 mg/kg, i.v. 1 mg/kg BW, mean
[3] = cat, po, 0.2 mg/kg, capsule p.o. 0.2 mg/kg BW, mean, read-out: Plasma concentration Mean
[4] = cat, po, 0.2 mg/kg, capsule p.o. 0.2 mg/kg BW, mean
[5] = cat, po, 1 mg/kg, capsule p.o. 1 mg/kg BW, mean, read-out: Plasma concentration Mean
[6] = cat, po, 1 mg/kg, capsule p.o. 1 mg/kg BW, mean
[7] = cat, po, 1 mg/kg, capsule p.o. 1 mg/kg BW, individual cats 1-6, read-out: Plasma concentration
[8] = cat, po, 1 mg/kg, tablet p.o. 1 mg/kg BW after fasting, individual cats 1-6, read-out: Plasma concentration
[9] = cat, po, 1 mg/kg, tablet p.o. 1 mg/kg BW after fasting, mean, read-out: Plasma concentration Mean
[10] = cat, po, 1 mg/kg, tablet p.o. 1 mg/kg BW after fasting, mean
[11] = cat, po, 1 mg/kg, tablet p.o. 1 mg/kg BW after feeding, mean, read-out: Plasma concentration Mean
[12] = cat, po, 1 mg/kg, tablet p.o. 1 mg/kg BW after feeding, mean
[13] = cat, po, 2 mg/kg, capsule p.o. 2 mg/kg BW, mean, read-out: Plasma concentration Mean
[14] = cat, po, 2 mg/kg, capsule p.o. 2 mg/kg BW, mean
[15] = cat, po, 2 mg/kg, tablet p.o. 2 mg/kg BW after feeding, mean, read-out: Plasma concentration Mean
[16] = cat, po, 2 mg/kg, tablet p.o. 2 mg/kg BW after feeding, mean
[17] = cat, po, 2 mg/kg, tablet p.o. 2 mg/kg BW after feeding, individual cats 1-6, read-out: Plasma concentration
[18] = iv, 1 mg/kg, i.v., Injection, 1 mg/kg BW
[19] = po, 0.2 mg/kg, p.o., Capsule, Fasting, 0.2 mg/kg BW

## O=C(/C=C\n1cnc(-c2cc(C(F)(F)F)cc(C(F)(F)F)c2)n1)NNc1ccccn1 [KPT-335]
cat, iv, 1 mg/kg, i.v. 1 mg/kg BW, 0.083 h, mean
  concentration at 0.083 h: 844 ng/mL
[1]
  concentration at 0.167 h: 812 ng/mL
  concentration at 1 h: 531 ng/mL
  concentration at 2 h: 441 ng/mL
  concentration at 4 h: 255 ng/mL
cat, iv, 1 mg/kg, i.v. 1 mg/kg BW, 0.25 h, mean
  concentration at 0.25 h: 767 ng/mL
[2]
  concentration at 0.33 h: 733 ng/mL
  concentration at 0.5 h: 667 ng/mL
  concentration at 0.75 h: 526 ng/mL
  concentration at 8 h: 95.9 ng/mL
  concentration at 12 h: 39.5 ng/mL
  concentration at 24 h: 10.2 ng/mL
  concentration at 32 h: 4.86 ng/mL
cat, other: i.v. and p.o., i.v. and p.o. routes, all groups, read-out: half-life (T1/2), range over all groups
  half-life: 210 to 420 min
[3]
  concentration at 0.167 h: 1.34 ng/mL
  concentration at 1 h: 21.5 ng/mL
  concentration at 1.5 h: 22.9 ng/mL
  concentration at 2 h: 22.4 ng/mL
  concentration at 4 h: 17.9 ng/mL
[4]
  concentration at 0.33 h: 6.56 ng/mL
  concentration at 0.5 h: 13.6 ng/mL
  concentration at 0.75 h: 20.8 ng/mL
  concentration at 6 h: 15.5 ng/mL
  concentration at 8 h: 13.9 ng/mL
  concentration at 12 h: 9.36 ng/mL
  concentration at 24 h: 3.49 ng/mL
  concentration at 32 h: 3.58 ng/mL
[5]
  concentration at 0.167 h: 4.97 ng/mL
  concentration at 1 h: 233 ng/mL
  concentration at 1.5 h: 250 ng/mL
  concentration at 2 h: 227 ng/mL
  concentration at 4 h: 153 ng/mL
  concentration at 48 h: 0.84 ng/mL
[6]
  concentration at 0.33 h: 39.5 ng/mL
  concentration at 0.5 h: 100 ng/mL
  concentration at 0.75 h: 174 ng/mL
  concentration at 6 h: 79.2 ng/mL
  concentration at 8 h: 53.1 ng/mL
  concentration at 12 h: 24.6 ng/mL
  concentration at 24 h: 5.57 ng/mL
  concentration at 32 h: 1.82 ng/mL
[7]
  concentration at 1 h: 161 ng/mL
  concentration at 48 h: 0.69 ng/mL
cat, po, 1 mg/kg, p.o., Tablet, Feeding, 1 mg/kg BW
  AUC(0-t): 2270 ± 1250 ng·h/mL
[8]
  concentration at 0.167 h: 5.51 ng/mL
  concentration at 2 h: 208 ng/mL
  concentration at 4 h: 209 ng/mL
[9]
  concentration at 0.167 h: 5.66 ng/mL
  concentration at 1 h: 227 ng/mL
  concentration at 1.5 h: 235 ng/mL
  concentration at 2 h: 216 ng/mL
  concentration at 4 h: 187 ng/mL
  concentration at 48 h: 2.26 ng/mL
[10]
  concentration at 0.33 h: 77.5 ng/mL
  concentration at 0.5 h: 204 ng/mL
  concentration at 0.75 h: 223 ng/mL
  concentration at 6 h: 154 ng/mL
  concentration at 8 h: 121 ng/mL
  concentration at 12 h: 74.1 ng/mL
  concentration at 24 h: 15.5 ng/mL
  concentration at 32 h: 5.11 ng/mL
[11]
  concentration at 0.167 h: 13.8 ng/mL
  concentration at 1 h: 334 ng/mL
  concentration at 1.5 h: 321 ng/mL
  concentration at 2 h: 304 ng/mL
  concentration at 4 h: 211 ng/mL
  concentration at 48 h: 1.25 ng/mL
[12]
  concentration at 0.33 h: 79.1 ng/mL
  concentration at 0.5 h: 148 ng/mL
  concentration at 0.75 h: 257 ng/mL
  concentration at 6 h: 146 ng/mL
  concentration at 8 h: 107 ng/mL
  concentration at 12 h: 52.1 ng/mL
  concentration at 24 h: 7.74 ng/mL
  concentration at 32 h: 3.37 ng/mL
[13]
  concentration at 0.167 h: 0.68 ng/mL
  concentration at 1 h: 206 ng/mL
  concentration at 1.5 h: 272 ng/mL
  concentration at 2 h: 269 ng/mL
  concentration at 4 h: 187 ng/mL
  concentration at 48 h: 1.28 ng/mL
[14]
  concentration at 0.33 h: 8.76 ng/mL
  concentration at 0.5 h: 52.5 ng/mL
  concentration at 0.75 h: 152 ng/mL
  concentration at 6 h: 111 ng/mL
  concentration at 8 h: 74.1 ng/mL
  concentration at 12 h: 40.1 ng/mL
  concentration at 24 h: 9.56 ng/mL
  concentration at 32 h: 4.07 ng/mL
cat, po, 2 mg/kg, p.o., Tablet, Feeding, 2 mg/kg BW
  AUC(0-t): 3000 ng·h/mL
[15]
  concentration at 0.167 h: 16.9 ng/mL
  concentration at 1 h: 464 ng/mL
  concentration at 1.5 h: 555 ng/mL
  concentration at 2 h: 516 ng/mL
  concentration at 4 h: 333 ng/mL
[16]
  concentration at 0.33 h: 95.9 ng/mL
  concentration at 0.5 h: 222 ng/mL
  concentration at 0.75 h: 389 ng/mL
  concentration at 6 h: 187 ng/mL
  concentration at 8 h: 126 ng/mL
  concentration at 12 h: 45 ng/mL
  concentration at 24 h: 6.55 ng/mL
  concentration at 32 h: 2.28 ng/mL
[17]
  concentration at 1 h: 288 ng/mL
  concentration at 1.5 h: 366 ng/mL
  concentration at 2 h: 303 ng/mL
cat, po, all p.o. groups, read-out: Tmax after oral (p.o.) administration
  Tmax: 1 to 2.5 h
cat, po, p.o. capsules 0.2–2 mg/kg BW, read-out: absolute bioavailability, capsule group range
  bioavailability: 28.9 to 44.7%
cat, po, p.o. tablets 1–2 mg/kg BW, read-out: absolute bioavailability, tablet group range
  bioavailability: 47.3 to 75.9%
iv, 1 mg/kg, Injection, 1 mg/kg BW
  MRT last: 4.73 ± 1.1 h
[18]
  AUC(0-inf): 3200 ± 851 ng·h/mL
  AUC(0-t): 3170 ± 842 ng·h/mL
  Cmax: 851 ± 285 ng/mL
iv, 1 mg/kg, i.v., Injection, 1 mg/kg BW, read-out: Lambda_z (converted)
  k el: 5e-05 s⁻¹
po, 0.2 mg/kg, Capsule, Fasting, 0.2 mg/kg BW
  MRT last: 8.66 ± 2.71 h
[19]
  AUC(0-inf): 314 ± 220 ng·h/mL
  AUC(0-t): 278 ± 158 ng·h/mL
  Cmax: 27.6 ± 9.02 ng/mL
